US20250144067A1, “PERSONALIZED STARVATION THERAPY FOR CANCER” (Faeth Therapeutics, Inc., priority 2021, published 2025)
Structures can show the parent of a compound that is named as a salt. Where two headings read alike, the source gives them in different places.

Experiments:
[1] = test system: NCI-H292 lung cancer cells; test: FDA drug screening, complete media vs cholesterol-free media without statin (TABLE 1); assay type: cell-based, human
[2] = test system: NCI-H292 lung cancer cells; test: FDA drug screening, complete media vs cholesterol-free media with simvastatin (TABLE 2); assay type: cell-based, human
[3] = Complete minus Cholesterol-free, greater than 0 enhanced anti-cancer activity, about 0 neutral, below 0 antagonists
[4] = NCI-H292 cells in cholesterol-free media without statin
[5] = NCI-H292 cells in complete media
[6] = NCI-H292 cells, FDA drug library screen, cholesterol-free media with simvastatin 0.04 μM
[7] = NCI-H292 cells, FDA drug library screen, complete media
[8] = complete media vs cholesterol-free media + simvastatin (0.04 μM), >0 enhanced anti-cancer activity, about 0 neutral, <0 antagonist
[9] = NCI-H292 cells, cholesterol-free media without statin
[10] = complete vs cholesterol-free media, greater than 0 enhanced anti-cancer activity, about 0 neutral, below 0 antagonists
[11] = NCI-H292 cells, drug in cholesterol-free media with simvastatin 0.04 μM
[12] = NCI-H292 cells, drug in complete media
[13] = Complete minus Cholesterol-free, >0 enhanced anti-cancer activity, about 0 neutral, <0 antagonist
[14] = NCI-H292 cells, cholesterol-free media without statin, FDA drug library screen
[15] = NCI-H292 cells, complete media, FDA drug library screen
[16] = NCI-H292 cells, cholesterol-free media with simvastatin 0.04 μM, FDA drug library screen (TABLE 2)
[17] = NCI-H292 cells, complete media, FDA drug library screen (TABLE 2)
[18] = complete media minus cholesterol-free media + simvastatin (0.04 μM), >0 enhanced anti-cancer activity, about 0 neutral, <0 antagonist
[19] = Complete minus Cholesterol-free, greater than 0 enhanced anti-cancer activity, about 0 neutral, below 0 antagonist
[20] = NCI-H292 cells, FDA drug library screen, cholesterol-free media without statin
[21] = NCI-H292 cells, cholesterol-free media with simvastatin 0.04 μM, cell growth value in FDA drug screen
[22] = NCI-H292 cells, complete media, cell growth value in FDA drug screen
[23] = complete media minus cholesterol-free media + simvastatin, >0 enhanced anti-cancer activity, about 0 neutral, <0 antagonist
[24] = complete vs cholesterol-free media, >0 enhanced anti-cancer activity, about 0 neutral, <0 antagonist
[25] = NCI-H292 cells, FDA library drug in cholesterol-free media with simvastatin 0.04 μM
[26] = NCI-H292 cells, FDA library drug in complete media

Molecule: CCO/N=C(\C(=O)N[C@@H]1C(=O)N2C(C(=O)[O-])=C(Sc3nc(-c4cc[n+](C)cc4)cs3)CS[C@H]12)c1nsc(NP(=O)(O)O)n1 [Ceftaroline fosamil]
- Difference [1, 3]: −0.71
- Cholesterol-free [1, 4]: 1.53
- Complete [1, 5]: 0.8244
- Cholesterol-free media + simvastatin (0.04 μM) [2, 6]: 1.027
- Complete Media [2, 7]: 0.9313
- Difference [2, 8]: −0.10

Molecule: CC(C)c1cc2c(cc1S(=O)(=O)O)[C@@]1(C)CCC[C@@](C)(C(=O)O)[C@@H]1CC2 [Ecabet (sodium)]
- Cholesterol-free [1, 9]: 1.17
- Complete ([1]; NCI-H292 cells, complete media): 0.8018
- Difference [1, 10]: −0.37
- Cholesterol-free media + simvastatin (0.04 μM) [2, 11]: 1.124
- Complete Media [2, 12]: 0.9102
- Difference [2, 8]: −0.21

Molecule: C#Cc1cccc(Nc2ncnc3cc4c(cc23)OCCOCCOCCO4)c1 [Icotinib (Hydrochloride)]
- Difference [1, 13]: 0.05
- Cholesterol-free [1, 14]: 0.2697
- Complete [1, 15]: 0.324
- Cholesterol-free media + simvastatin (0.04 μM) [2, 16]: 0.5866
- Complete Media [2, 17]: 0.5343
- Difference [2, 18]: −0.05

Molecule: CN1CCCC(CC2c3ccccc3Sc3ccccc32)C1 (centres unmarked) [Metixene hydrochloride hydrate]
- Difference [1, 13]: −0.25
- Cholesterol-free [1, 9]: 1.293
- Complete ([1]; NCI-H292 cells, complete media): 1.044
- Cholesterol-free media + simvastatin (0.04 μM) [2, 11]: 1.206
- Complete Media [2, 12]: 1.036
- Difference [2, 8]: −0.17

Molecule: CC(=O)O[C@]1(C(C)=O)CC[C@H]2[C@@H]3C=C(C)C4=CC(=O)CC[C@@H]4[C@H]3CC[C@@]21C [Nomegestrol acetate]
- Difference [1, 19]: −0.14
- Cholesterol-free [1, 20]: 0.9161
- Complete [1, 7]: 0.7734
- Cholesterol-free media + simvastatin (0.04 μM) [2, 16]: 0.9875
- Complete Media [2, 17]: 0.9519
- Difference [2, 18]: −0.04

Molecule: Nc1c(Br)cc(Br)cc1CN[C@H]1CC[C@H](O)CC1 [Ambroxol]
- Difference [1, 13]: −0.22
- Cholesterol-free [1, 9]: 1.134
- Complete ([1]; NCI-H292 cells, complete media): 0.9121
- Cholesterol-free media + simvastatin (0.04 μM) [2, 6]: 1.121
- Complete Media [2, 7]: 0.9656
- Difference [2, 8]: −0.16

Molecule: O=C(O)c1cc(=O)c2c(OCC(O)COc3cccc4oc(C(=O)O)cc(=O)c34)cccc2o1 [Cromolyn (sodium)]
- Difference [1, 3]: −0.63
- Cholesterol-free [1, 4]: 1.66
- Complete [1, 5]: 1.032
- Cholesterol-free media + simvastatin (0.04 μM) [2, 21]: 0.821
- Complete Media [2, 22]: 0.9131
- Difference [2, 23]: 0.09

Molecule: O=C(O)c1cccnc1Nc1cccc(C(F)(F)F)c1 [Niflumic acid]
- Cholesterol-free [1, 14]: 0.872
- Complete [1, 15]: 1.486
- Difference [1, 24]: 0.61
- Cholesterol-free media + simvastatin (0.04 μM) [2, 25]: 0.9955
- Complete Media [2, 26]: 0.2879
- Difference [2, 8]: −0.71

Molecule: CC[C@@H](CO)NCCN[C@@H](CC)CO [Ethambutol (dihydrochloride)]
- Cholesterol-free [1, 14]: 0.4829
- Complete [1, 15]: 1.206
- Difference [1, 24]: 0.72
- Cholesterol-free media + simvastatin (0.04 μM) [2, 25]: 1.428
- Complete Media [2, 26]: 1.016
- Difference [2, 8]: −0.41

Molecule: NC(=O)c1cn(Cc2c(F)cccc2F)nn1 [Rufinamide]
- Difference [1, 13]: 0.00
- Cholesterol-free [1, 14]: 0.9822
- Complete [1, 15]: 0.9785
- Cholesterol-free media + simvastatin (0.04 μM) [2, 6]: 0.995
- Complete Media [2, 7]: 0.8999
- Difference [2, 8]: −0.10

Molecule: CC(C)(C)CC(C)(C)c1ccc(O)c(Cc2ccc(Cl)cc2Cl)c1 [Clofoctol]
- Difference [1, 3]: −0.85
- Cholesterol-free [1, 4]: 1.815
- Complete [1, 5]: 0.9672
- Cholesterol-free media + simvastatin (0.04 μM) [2, 6]: 1.057
- Complete Media [2, 7]: 1.232
- Difference [2, 23]: 0.17

Molecule: NC(=O)c1ncn([C@@H]2O[C@H](CO)[C@@H](O)[C@H]2O)n1 [Ribavirin]
- Difference [1, 19]: −0.11
- Cholesterol-free [1, 20]: 0.8402
- Complete [1, 7]: 0.7281
- Cholesterol-free media + simvastatin (0.04 μM) [2, 11]: 0.9314
- Complete Media [2, 12]: 0.6899
- Difference [2, 8]: −0.24

Molecule: CN1CCN(c2c(F)cc3c(=O)c(C(=O)O)cn4c3c2SCC4)CC1 [Rufloxacin hydrochloride]
- Difference [1, 13]: −0.28
- Cholesterol-free [1, 9]: 1.291
- Complete ([1]; NCI-H292 cells, complete media): 1.016
- Cholesterol-free media + simvastatin (0.04 μM) [2, 6]: 0.949
- Complete Media [2, 7]: 1.098
- Difference [2, 23]: 0.15

Molecule: CCCCN(CCCC)CC(O)c1cc(Cl)cc2c1-c1ccc(Cl)cc1/C2=C/c1ccc(Cl)cc1 (centres unmarked) [Lumefantrine]
- Cholesterol-free [1, 14]: 0.9552
- Difference [1, 24]: 0.22
- Cholesterol-free media + simvastatin (0.04 μM) [2, 21]: 0.8537
- Complete Media [2, 22]: 0.9184
- Difference [2, 23]: 0.06

Molecule: Afatinib (dimaleate)
- Difference [1, 13]: 0.03
- Cholesterol-free [1, 14]: 0.07869
- Complete [1, 15]: 0.1056
- Cholesterol-free media + simvastatin (0.04 μM) [2, 6]: 0.4722
- Complete Media [2, 7]: 0.3193
- Difference [2, 8]: −0.15

Molecule: Cn1cc[nH]c1=S [Methimazole]
- Difference [1, 13]: −0.20
- Cholesterol-free [1, 9]: 1.024
- Complete ([1]; NCI-H292 cells, complete media): 0.8245
- Cholesterol-free media + simvastatin (0.04 μM) [2, 6]: 1.144
- Complete Media [2, 7]: 1.001
- Difference [2, 8]: −0.14

Molecule: O=C(C1CCCCC1)N1CC(=O)N2CCc3ccccc3C2C1 (centres unmarked) [Praziquantel]
- Cholesterol-free [1, 9]: 1.485
- Complete ([1]; NCI-H292 cells, complete media): 1.043
- Difference [1, 10]: −0.44
- Cholesterol-free media + simvastatin (0.04 μM) [2, 25]: 1.644
- Complete Media [2, 26]: 1.108
- Difference [2, 8]: −0.54

Molecule: CC[C@H](C)[C@H](NC(=O)[C@H](CCC(=O)O)NC(=O)[C@H](CO)NC(=O)[C@@H](NC(=O)[C@@H](N)CO)C(C)C)C(=O)N[C@@H](CCC(N)=O)C(=O)N[C@@H](CC(C)C)C(=O)N[C@@H](CCSC)C(=O)N[C@@H](Cc1cnc[nH]1)C(=O)N[C@@H](CC(N)=O)C(=O)N[C@@H](CC(C)C)C(=O)NCC(=O)N[C@@H](CCCCN)C(=O)N[C@@H](Cc1cnc[nH]1)C(=O)N[C@@H](CC(C)C)C(=O)N[C@@H](CC(N)=O)C(=O)N[C@@H](CO)C(=O)N[C@@H](CCSC)C(=O)N[C@@H](CCC(=O)O)C(=O)N[C@@H](CCCN=C(N)N)C(=O)N[C@H](C(=O)N[C@@H](CCC(=O)O)C(=O)N[C@@H](Cc1c[nH]c2ccccc12)C(=O)N[C@@H](CC(C)C)C(=O)N[C@@H](CCCN=C(N)N)C(=O)N[C@@H](CCCCN)C(=O)N[C@@H](CCCCN)C(=O)N[C@@H](CC(C)C)C(=O)N[C@@H](CCC(N)=O)C(=O)N[C@@H](CC(=O)O)C(=O)N[C@H](C(=O)N[C@@H](Cc1cnc[nH]1)C(=O)N[C@@H](CC(N)=O)C(=O)N[C@@H](Cc1ccccc1)C(=O)O)C(C)C)C(C)C [Teriparatide]
- Difference ([1]; Complete minus Cholesterol-free, […]): −0.19
- Cholesterol-free [1, 20]: 1.061
- Complete [1, 7]: 0.8757
- Cholesterol-free media + simvastatin (0.04 μM) [2, 16]: 1.048
- Complete Media [2, 17]: 1.02
- Difference ([2]; complete media minus cholesterol-free media + simvastatin (0.04 μM), […]): −0.03

Molecule: Adenine (hemisulfate)
- Cholesterol-free [1]: 1.657
- Complete [1]: 0.9172
- Difference [1]: −0.74
- Cholesterol-free media + simvastatin (0.04 μM) [2]: 1.503
- Complete Media [2]: 1.604
- Difference [2]: 0.10

Molecule: CCC(=O)OCC(=O)[C@@]1(OC(=O)CC)[C@@H](C)C[C@H]2[C@@H]3CCC4=CC(=O)C=C[C@]4(C)[C@@]3(F)[C@@H](O)C[C@@]21C [Betamethasone dipropionate]
- Difference [1, 13]: −0.28
- Cholesterol-free [1, 9]: 0.9149
- Complete ([1]; NCI-H292 cells, complete media): 0.6317
- Cholesterol-free media + simvastatin (0.04 μM) [2, 21]: 0.5238
- Complete Media [2, 22]: 0.6181
- Difference [2, 23]: 0.09
